Measurements as given in PMC11938014, “Development and Application of Small Molecule–Peptide Conjugates as Cathepsin K-Specific Covalent Irreversible Inhibitors in Human Osteoclast and Lung Cancer” (JACS Au, 2025).
Like-named read-outs stand apart in the source and are kept apart here.

Columns and labels:
Assay in all cases: Recombinant cathepsin inhibition, gel-based competition with GB123 probe
Format in all cases: biochemical
[1] = biological target: T1, Recombinant human cathepsin B (Homo sapiens, UniProt P07858)
T1 construct: made in house
Experimental: (§1) In-gel fluorescence analysis was used to detect the residual activity of the cathepsins by applying pan-cathepsin probe GB123 to detect the stable enzyme–probe complex. This approach is used for testing inhibition and selectivity.[37],[41]
(§2) Recombinant human cathepsin L (0.5 μM), cathepsin B (0.5 μM), cathepsin K (0.5 μM), and cathepsin S (0.5 μM) were pretreated with different concentrations of inhibitors (GD compounds, odanacatib) for 1 h in reaction buffer (50 mM acetate, 2 mM dithiothreitol (DTT), and 5 mM MgCl2, pH 5.5) at 37 °C. GB123 (1 μM) was added and incubated with samples for 60 min at 37 °C.[37],[41] The reaction was stopped by the addition of sample buffer 4× (40% glycerol, 0.2 M Tris/HCl pH 6.8, 20% β-mercaptoethanol, 12% SDS, and 0.4 mg/mL bromophenol blue). Samples were then boiled, separated on a 12.5% SDS gel, and scanned for fluorescence by a Typhoon scanner FLA 9500 at excitation and emission wavelengths of 635 and 670 nm for GB123.
(§3) graphs were generated in GraphPad Prism software.

[2] = biological target: T2, Recombinant human cathepsin K (Homo sapiens, UniProt P43235); details: for loss of potency compared to GD20: diastereomers of GD20 with D amino acids
T2 construct: made in house
T2 sequence (P43235 115-329): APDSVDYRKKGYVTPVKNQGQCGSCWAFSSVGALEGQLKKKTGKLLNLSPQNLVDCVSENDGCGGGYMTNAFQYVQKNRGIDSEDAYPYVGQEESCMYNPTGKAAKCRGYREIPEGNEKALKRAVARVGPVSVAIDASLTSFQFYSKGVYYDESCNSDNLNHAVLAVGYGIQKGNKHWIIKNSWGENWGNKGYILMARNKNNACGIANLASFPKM
Experimental: as §1, §2, §3

[3] = biological target: T3, Recombinant human cathepsin L (Homo sapiens, UniProt P07711)
T3 construct: made in house
Experimental: as §1, §2, §3

[4] = Table S2, three independent competition gel-based experiments, read-out: CTSB (IC50)
[5] = Table S2, three independent competition gel-based experiments, read-out: CTSK (IC50)
[6] = Table S2, three independent competition gel-based experiments, read-out: CTSL (IC50)

T3 sequence (P07711 114-333): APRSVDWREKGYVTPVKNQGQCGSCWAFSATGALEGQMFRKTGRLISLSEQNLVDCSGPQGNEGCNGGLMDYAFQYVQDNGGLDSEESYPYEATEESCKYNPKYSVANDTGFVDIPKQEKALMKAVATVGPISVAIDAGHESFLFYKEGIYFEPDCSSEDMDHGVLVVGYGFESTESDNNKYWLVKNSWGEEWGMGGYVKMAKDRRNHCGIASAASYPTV

SMILES	IC50 [1, 4]	IC50 [2, 5]	IC50 [3, 6]	IC50 ([1]; Figure 1, gel-based GB123 competition, read-out: Activity [μM] CTSB (IC50))	IC50 ([2]; Figure 1, gel-based GB123 competition, read-out: Activity [μM] CTSK (IC50))	IC50 ([3]; Figure 1, gel-based GB123 competition, read-out: Activity [μM] CTSL (IC50))	loss of potency compared to GD20 [2]
Cc1cccc(C)c1C(=O)OCC(=O)[C@H](CCCCN)NC(=O)[C@H](Cc1ccccc1)NC(=O)OCc1ccccc1 [GB111-NH2, reference compound]	0.4 ± 0.06 µM	4.4 ± 0.9 µM	0.25 ± 0.04 µM				
Cc1cccc(C)c1C(=O)OCC(=O)CNC(=O)[C@H](CC(C)(C)F)N[C@@H](c1ccc(-c2ccc(NC(=O)OC(C)(C)C)cc2)cc1)C(F)(F)F [GD6]	1.7 ± 0.35 µM	1.6 ± 0.35 µM	> 5 µM				
Cc1cccc(C)c1C(=O)OCC(=O)CNC(=O)[C@H](CC(C)C)N[C@@H](c1ccc(-c2ccc(S(C)(=O)=O)cc2)cc1)C(F)(F)F [GD7]	3.6 ± 0.03 µM	0.66 ± 0.01 µM	> 5 µM				
CC(C)C[C@H](N[C@@H](c1ccc(-c2ccc(S(C)(=O)=O)cc2)cc1)C(F)(F)F)C(=O)NCC(=O)COc1c(F)c(F)cc(F)c1F [GD8]	2.2 ± 0.35 µM	0.68 ± 0.08 µM	3.6 ± 0.04 µM				
CC(C)C[C@H](N[C@@H](c1ccc(-c2ccc(S(C)(=O)=O)cc2)cc1)C(F)(F)F)C(=O)NCC(=O)CSc1c(F)c(F)cc(F)c1F [GD9]	5.1 ± 0.55 µM	0.5 ± 0.05 µM	> 5 µM				
NCCCC[C@H](NC(=O)[C@H](Cc1ccccc1)NC(=O)OCc1ccccc1)C(=O)CSc1c(F)c(F)cc(F)c1F [GD10]	0.66 ± 0.02 µM	0.65 ± 0.01 µM	0.19 ± 0.1 µM				
Cc1cccc(C)c1C(=O)OCC(=O)[C@H](CCCCN)NC(=O)[C@H](CC(C)C)NC(=O)CNC(=O)OCc1ccccc1 [GD12]	1 ± 0.13 µM	0.8 ± 0.1 µM	1.6 ± 0.22 µM				
Cc1cccc(C)c1C(=O)OCC(=O)[C@H](CCCCN)NC(=O)[C@@H]1CCCN1C(=O)CNC(=O)OCc1ccccc1 [GD13]	4 ± 0.15 µM	2.7 ± 0.35 µM	> 5 µM	1.95 ± 0.35 µM	3.6 ± 0.5 µM		
NCCCC[C@H](NC(=O)[C@@H]1CCCN1C(=O)CNC(=O)OCc1ccccc1)C(=O)COc1c(F)c(F)cc(F)c1F [GD14]	0.8 ± 0.25 µM	0.3 ± 0.03 µM	> 5 µM				
NCCCC[C@H](NC(=O)[C@@H]1CCCN1C(=O)CNC(=O)OCc1ccccc1)C(=O)CSc1c(F)c(F)cc(F)c1F [GD15]	> 5 µM	5.5 ± 1 µM	2 ± 0.15 µM			> 5 µM	
Cc1cccc(C)c1C(=O)OCC(=O)CNC(=O)[C@@H]1CCCN1C(=O)CNC(=O)OCc1ccccc1 [GD16]	2.8 ± 0.6 µM	1.8 ± 0.25 µM	> 5 µM				
O=C(CNC(=O)[C@@H]1CCCN1C(=O)CNC(=O)OCc1ccccc1)CSc1c(F)c(F)cc(F)c1F [GD17]	> 5 µM	1.2 ± 0.11 µM	> 5 µM				
CC(C)C[C@H](N[C@@H](c1ccc(-c2ccc(NC(=O)OC(C)(C)C)cc2)cc1)C(F)(F)F)C(=O)NCC(=O)COC(=O)[C@@H]1CCCN1C(=O)[C@H](CC(C)C)NC(=O)OCC1c2ccccc2-c2ccccc21 [GD26]	6 ± 1.5 µM	1.4 ± 0.2 µM	> 5 µM				
CC(C)C[C@H](N[C@@H](c1ccc(-c2ccc(S(C)(=O)=O)cc2)cc1)C(F)(F)F)C(=O)NCC(=O)COC(=O)CNC(=O)OCC1c2ccccc2-c2ccccc21 [GD27]	> 5 µM	1 ± 0.07 µM	> 5 µM				

More lines, now with the values ahead:

IC50 [1, 4]	IC50 [2, 5]	IC50 [3, 6]	IC50 ([1]; Figure 1, gel-based GB123 competition, read-out: Activity [μM] CTSB (IC50))	IC50 ([2]; Figure 1, gel-based GB123 competition, read-out: Activity [μM] CTSK (IC50))	IC50 ([3]; Figure 1, gel-based GB123 competition, read-out: Activity [μM] CTSL (IC50))	loss of potency compared to GD20 [2]	SMILES
> 5 µM	> 5 µM	> 5 µM					CC(C)C[C@H](NC(=O)OCC1c2ccccc2-c2ccccc21)C(=O)N1CCC[C@H]1C(=O)OCC(=O)CNC(=O)[C@H](CC1CCCCC1)N[C@@H](c1ccc(-c2ccc(S(C)(=O)=O)cc2)cc1)C(F)(F)F [GD28]
> 5 µM	> 5 µM	1.6 ± 0.5 µM					CC(C)C[C@H](NC(=O)OCC1c2ccccc2-c2ccccc21)C(=O)N1CCC[C@H]1C(=O)OCC(=O)CNC(=O)[C@H](CCCCNC(=O)OC(C)(C)C)N[C@@H](c1ccc(-c2ccc(S(C)(=O)=O)cc2)cc1)C(F)(F)F [GD29]
0.24 ± 0.1 µM	0.9 ± 0.1 µM	> 20 µM					CC(C)C[C@H](N[C@@H](c1ccc(-c2ccc(S(=O)(=O)NC(=O)OC(C)(C)C)cc2)cc1)C(F)(F)F)C(=O)NCC(=O)COC(=O)[C@@H]1CCCN1C(=O)[C@H](CC(C)C)NC(=O)OCC1c2ccccc2-c2ccccc21 [GD31]
> 20 µM	> 20 µM	4.4 ± 0.8 µM					C#CCNC(=O)[C@H](CC(C)C)N[C@@H](c1ccc(-c2ccc(S(=O)(=O)NC(=O)OC(C)(C)C)cc2)cc1)C(F)(F)F [GD33]
5 ± 0.1 µM	0.9 ± 0.06 µM	> 5 µM					CC(C)C[C@H](N[C@@H](c1ccc(-c2ccc(CCNC(=O)OC(C)(C)C)cc2)cc1)C(F)(F)F)C(=O)NCC(=O)COC(=O)[C@@H]1CCCN1C(=O)[C@H](CC(C)C)NC(=O)OCC1c2ccccc2-c2ccccc21 [GD34]
	3.5 ± 0.5 µM					4–9 times	CC(C)C[C@H](N[C@H](c1ccc(-c2ccc(S(C)(=O)=O)cc2)cc1)C(F)(F)F)C(=O)NCC(=O)COC(=O)[C@@H]1CCCN1C(=O)[C@H](CC(C)C)NC(=O)OCC1c2ccccc2-c2ccccc21 [GD35]
	3.9 ± 0.7 µM					4–9 times	CC(C)C[C@H](NC(=O)OCC1c2ccccc2-c2ccccc21)C(=O)N1CCC[C@H]1C(=O)OCC(=O)CNC(=O)[C@@H](CC(C)C)N[C@@H](c1ccc(-c2ccc(S(C)(=O)=O)cc2)cc1)C(F)(F)F [GD39]
	3.5 ± 0.9 µM					4–9 times	CC(C)C[C@H](NC(=O)OCC1c2ccccc2-c2ccccc21)C(=O)N1CCC[C@H]1C(=O)OCC(=O)CNC(=O)[C@@H](CC(C)C)N[C@H](c1ccc(-c2ccc(S(C)(=O)=O)cc2)cc1)C(F)(F)F [GD40]
